Values of other authors in patent US20260198548A1, “AEROSOL-GENERATING ARTICLE WITH AN AVERSIVE FLAVOURANT IN A REMOVABLE WRAPPER” (PHILIP MORRIS PRODUCTS S.A., priority 2022, published 2026).
Where a name gives a salt, the structure may show the parent alone.

System: test panel members (bitter taste)
Details: reciprocal of the dilution that still has a bitter taste; quinine hydrochloride reference set at 200,000

Molecule | Bitterness value
CC1=C[C@H]2[C@H]3[C@H](C(C)=C4[C@H]5OC(=O)[C@@H](C)[C@@H]5CC[C@](C)(O)[C@@H]43)[C@@]13[C@@H]2[C@@](C)(O)CC[C@H]1[C@H](C)C(=O)O[C@@H]13 [Absinthin, absinthin] | 3,000,000
C[C@@]12C[C@@H](c3ccoc3)OC(=O)[C@@H]1CC[C@]1(C)[C@H]2[C@@H]2C=C[C@@]1(O)C(=O)O2 [Columbin, columbin] | 60,000,000
COC1=C[C@@H](C)[C@@H]2C[C@H]3OC(=O)C[C@H]4C(C)=C(OC)C(=O)[C@H]([C@@]2(C)C1=O)[C@@]34C [Quassin, quassin] | 13,000,000
C=C[C@H]1C[N@@]2CC[C@H]1C[C@H]2[C@H](O)c1ccnc2ccc(OC)cc12 [Quinine hydrochloride, quinine hydrochloride] | 200,000
amarogentin | 58,000,000
